In US20250368648A1, “MULTI-CYCLIC IRAK AND FLT3 INHIBITING COMPOUNDS AND USES THEREOF” (CHILDREN'S HOSPITAL MEDICAL CENTER, priority 2022, published 2025):

Assays:
IRAK4 = target: T1, IRAK4 (Homo sapiens, UniProt Q9NWZ3); assay: Reaction Biology NanoBRET target engagement assay, IRAK4; assay type: cell-based; conditions: HEK-293 cells transfected with Kinase-NanoLuc fusion vector, live cells
T1 sequence (Q9NWZ3 1-460): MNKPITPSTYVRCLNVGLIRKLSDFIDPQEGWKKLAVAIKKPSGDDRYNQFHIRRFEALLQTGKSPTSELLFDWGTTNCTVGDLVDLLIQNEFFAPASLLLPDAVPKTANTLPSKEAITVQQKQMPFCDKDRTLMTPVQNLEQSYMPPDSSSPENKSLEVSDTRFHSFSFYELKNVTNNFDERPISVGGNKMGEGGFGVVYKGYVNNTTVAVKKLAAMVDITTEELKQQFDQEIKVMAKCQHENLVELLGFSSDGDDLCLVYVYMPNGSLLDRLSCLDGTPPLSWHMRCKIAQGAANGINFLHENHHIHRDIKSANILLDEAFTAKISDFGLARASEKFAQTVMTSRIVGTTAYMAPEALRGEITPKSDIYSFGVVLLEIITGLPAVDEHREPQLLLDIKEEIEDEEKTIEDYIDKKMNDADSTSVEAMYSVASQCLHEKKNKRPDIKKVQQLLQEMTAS
From the text: The NanoBRET assay measures kinase engagement in real time in the context of the intact cell. Unlike the previously described biochemical kinase assay methodologies in Examples 47 and 48, the NanoBRET assay measures the binding and activity characteristics under equilibrium conditions using full-length kinases in the presence of cellular concentrations of ATP in live, uncompromised cells. […] The assay uses a Kinase-NanoLuc® fusion vector expressing a kinase protein to which a luciferase tag has been added, a cell-permeant fluorescent NanoBRET™ tracer, a NanoLuc® substrate, and an extracellular NanoLuc® inhibitor. Upon expression of the luciferase-tagged kinase, cells will produce a strong BRET signal only in the presence of the NanoBRET™ tracer. The extracellular NanoLuc® inhibitor ensures that the BRET signal observed emanates only from live cells. Because the BRET signal has tight distance constraints, addition of the test compound will decrease the BRET signal if the compound competes with the NanoBRET™ tracer for binding to the kinase domain. Under the appropriate tracer conditions established by the manufacturer, quantitative intracellular affinity and relative potency can then be determined using Mass Action model equations.
HEK-293 cells were purchased from ATCC. FuGENEHD Transfection Reagent, Kinase-NanoLucfusion plasmids, Transfection Carrier DNA, NanoBRETTracers and dilution buffer, NanoBRETNano-Glo Substrate, Extracellular NanoLucInhibitor were obtained from Promega.
Assays were conducted following Promega assay protocol with some modifications. HEK-293 Cells were transiently transfected with Kinase-NanoLucFusion Vector DNA by FuGENEHD Transfection Reagent. Testing compounds were delivered into 384 well assay plate by Echo 550 (LabcyteInc, Sunnyvale, CA). Transfected cells were harvested and mixed with NanoBRETTracer Reagent and dispensed into 384 well plates and incubated at 37° C. in 5% CO2 cell culture incubator for 1 hour. The NanoBRETNano-Glo Substrate plus Extracellular NanoLucInhibitor Solution were added into the wells of the assay plate and incubated for 2-3 minutes at room temperature. The donor emission wavelength (460 nm) and acceptor emission wavelength (600 nm) were measured in the EnVisionplate reader. The BRET Ratios were calculated. BRET Ratio=[(Acceptor sample÷Donor sample)−(Acceptor no-tracer control÷Donor no-tracer control)]. The IC50 values of compounds were calculated with Prism GraphPad program.
• 1). Cultivate HEK-293 cells (70-80% confluence) appropriately prior to assay. Trypsinize and collect HEK-293 cells. • 2). Prepare lipid: DNA complexes as follows: • a. Prepare a 10 μg/ml solution of DNA in Opti-MEM without serum that consists of the following ratios of carrier DNA and DNA encoding NanoLuc® fusion. […] of Transfection Carrier DNA, […] of NanoLuc fusion vector DNA and 1 mL of Opti-MEM without phenol red. Mix thoroughly. • b. Add 30 μl of FuGENE HD Transfection Reagent into each milliliter of DNA mixture to form lipid: DNA complex. • c. Mix by inversion 10 times. • d. Incubate at ambient temperature for 20 minutes to allow complexes to form. • 3). In a sterile, conical tube, mix 1 part of lipid:DNA complex with 20 parts of HEK-293 cells in suspension. Mix gently by inversion 5 times. • 4). Dispense cells+lipid: DNA complex into a sterile tissue culture dish and incubate for 22-24 hours.
Each test compound is delivered from the compound source plate to the wells of 384-well white NBS plate by Echo 550.
3. Preparation of Cells with NanoBRET™ Tracer Reagent • 1). Remove medium from dish with transfected HEK-293 cells via aspiration, trypsinize and allow cells to dissociate from the dish. • 2). Neutralize trypsin using medium containing serum and centrifuge at 200× g for 5 minutes to pellet the cells. Adjust the cell density to […] cells/mL in Opti-MEM without phenol red. • 3). Prepare Complete 20× NanoBRET™ Tracer Reagent with Tracer Dilution Buffer. • 4). […]

IRAK1 = target: T2, IRAK1 (Homo sapiens, UniProt P51617); assay: RBC HotSpot Kinase Assay, IRAK1; assay type: biochemical; conditions: HotSpot functional assay, isolated kinase enzyme, 33P-ATP
T2 construct: purchased RBC (Reaction Biology) HotSpot assay
Summary of the method: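 Isolated kinases, possibly truncated or lacking regulatory receptor regions, were preincubated with compound for 20 min at room temp in 20 mM Hepes pH 7.5, 10 mM MgCl2, 1 mM EGTA, 2 mM DTT, 1% DMSO. Reactions were started with ^33P-ATP and run 2 h at room temperature; activity was read by P81 filter binding.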

T2 sequence (P51617 whole entry): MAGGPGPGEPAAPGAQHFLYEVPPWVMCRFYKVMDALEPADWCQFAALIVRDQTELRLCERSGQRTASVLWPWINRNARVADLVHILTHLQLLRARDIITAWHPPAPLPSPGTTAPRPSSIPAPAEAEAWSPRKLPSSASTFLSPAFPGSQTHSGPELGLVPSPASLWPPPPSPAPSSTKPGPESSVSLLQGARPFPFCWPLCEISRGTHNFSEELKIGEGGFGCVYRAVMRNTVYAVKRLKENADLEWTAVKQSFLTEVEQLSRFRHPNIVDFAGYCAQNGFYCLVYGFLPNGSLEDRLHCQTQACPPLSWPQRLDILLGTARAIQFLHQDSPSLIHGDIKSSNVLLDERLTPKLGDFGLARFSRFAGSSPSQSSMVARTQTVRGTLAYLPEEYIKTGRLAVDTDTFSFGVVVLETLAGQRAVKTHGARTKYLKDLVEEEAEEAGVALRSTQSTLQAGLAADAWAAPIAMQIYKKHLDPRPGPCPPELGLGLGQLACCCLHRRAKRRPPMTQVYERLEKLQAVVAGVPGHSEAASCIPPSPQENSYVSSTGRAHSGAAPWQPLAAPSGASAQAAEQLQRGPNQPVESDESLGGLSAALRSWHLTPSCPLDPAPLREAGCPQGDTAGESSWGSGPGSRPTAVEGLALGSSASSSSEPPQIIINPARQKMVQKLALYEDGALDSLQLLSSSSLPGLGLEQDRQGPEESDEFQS

SMILES	IC50 (IRAK4)	IC50 (IRAK1)
COc1cc2ncc(-c3nc(N[C@H]4CNCC[C@@H]4F)c(F)cc3F)n2nc1C1CCC1 [Compound 15a, 6-(6-cyclobutyl-7-methoxyimidazo[1,2-b]pyridazin-3-yl)-3,5-difluoro-N-((3S,4S)-4-fluoropiperidin-3-yl)pyridin-2-amine]	1 nM	12 nM
COc1cc2ncc(-c3nc(N[C@H]4CNCC[C@@H]4F)c(F)cc3F)n2nc1C(C)(O)C(F)(F)F (single isomer, unassigned) [Compound 77a]	0.4 nM	362 nM
COc1cc2ncc(-c3nc(N[C@H]4CNC[C@@H]4F)c(F)cc3F)n2nc1C1CC2(CCC2)C1 [Compound 12a, 3,5-difluoro-N-((3S,4S)-4-fluoropyrrolidin-3-yl)-6-(7-methoxy-6-(spiro[3.3]heptan-2-yl)imidazo[1,2-b]pyridazin-3-yl)pyridin-2-amine]	71 nM	88 nM
COc1cc2ncc(-c3nc(N[C@H]4CNCC[C@@H]4F)c(F)cc3F)n2nc1C12CC(C1)C2 [Compound 67a, 6-(6-(bicyclo[1.1.1]pentan-1-yl)-7-methoxyimidazo[1,2-b]pyridazin-3-yl)-3,5-difluoro-N-((3S,4S)-4-fluoropiperidin-3-yl)pyridin-2-amine]	5 nM	9 nM
COc1cc2ncc(-c3nc(N[C@H]4CNCC[C@@H]4F)c(F)cc3F)n2nc1C1CC2(CCC2)C1 [Compound 10a, 3,5-difluoro-N-((3S,4S)-4-fluoropiperidin-3-yl)-6-(7-methoxy-6-(spiro[3.3]heptan-2-yl)imidazo[1,2-b]pyridazin-3-yl)pyridin-2-amine]	64 nM	72 nM
COc1cc2ncc(-c3nc(N[C@@H]4CCCNC4)c(F)cc3F)n2nc1C(C)(O)C(F)(F)F (single isomer, unassigned) [Compound 81a]	0.6 nM	589 nM
COc1cc2ncc(-c3nc(N[C@H]4CNC[C@@H]4F)c(F)cc3F)n2nc1C(C)(O)C(F)(F)F (single isomer, unassigned) [Compound 80a]	5 nM	1550 nM
